This note sets out measurements from BindingDB's records for doi:10.1016/j.bmc.2019.115125 (Duquesne University, 2019).

The term IC50 denotes the concentration that gives 50% inhibition.

A value given as a limit tells only on which side of the number the result lay.

The nature of test [1]: Binding affinity to human FRalpha expressed in Chinese hamster RT16 cells assessed as antiproliferative activity measured as reduction in cell growth after 96 hrs by Cell-Titer Blue assay.
A short description of test [2]: Binding affinity to human RFC expressed in Chinese hamster PC43-10 cells assessed as antiproliferative activity measured as reduction in cell growth after 96 hrs by Cell-Titer Blue assay.
A short description of test [3]: Binding affinity to human PCFT expressed in Chinese hamster R2/PCFT4 cells assessed as antiproliferative activity measured as reduction in cell growth after 96 hrs by Cell-Titer Blue assay.

As for `CN(Cc1cc2c(=O)[nH]c(N)nc2[nH]1)C(=O)c1ccc(C(=O)N[C@@H](CCC(=O)O)C(=O)O)s1`, the IC50 is 7.8 nM in test [1], above 1000 nM in test [2] and above 1000 nM in test [3].
As to `CN(Cc1cc2c(=O)[nH]c(N)nc2[nH]1)S(=O)(=O)c1ccc(C(=O)N[C@@H](CCC(=O)O)C(=O)O)cc1`, the IC50 in test [1], in test [2] and in test [3] was above 1000 nM each time.
On to `CN(Cc1cc2c(=O)[nH]c(N)nc2[nH]1)C(=O)c1ccc(C(=O)N[C@@H](CCC(=O)O)C(=O)O)cc1`, for which the IC50 is above 1000 nM in test [2] and 49 nM in test [3].
Regarding `CN(Cc1cc2c(=O)[nH]c(N)nc2[nH]1)C(=O)c1cccc(C(=O)N[C@@H](CCC(=O)O)C(=O)O)c1`, the IC50 in test [1] is 1.8 nM; in test [2], above 1000 nM; in test [3], 747 nM.
For `CN(Cc1cc2c(=O)[nH]c(N)nc2[nH]1)C(=O)c1cc(C(=O)N[C@@H](CCC(=O)O)C(=O)O)cs1`, in that order: 867 nM, above 1000 nM and above 1000 nM.
For `CN(Cc1cc2c(=O)[nH]c(N)nc2[nH]1)C(=O)c1csc(C(=O)N[C@@H](CCC(=O)O)C(=O)O)c1`, in that order: above 1000 nM, above 1000 nM and above 1000 nM.
